Reference: PMC13081163, “Discovery of a novel Nrf2 activator that modulates mitochondrial function in neurons by regulating DHRS3-Nrf2 interaction after ischemic stroke” (Theranostics, 2026)

Experiments:
[1] = test system: rat transient Middle Cerebral Artery Occlusion (tMCAO) model; assay: Rat tMCAO model, acute phase (TTC, mNSS, peri-infarct cortex); assay type: in vivo
Protocol: (§1) Cpd.51 was dissolved in solvent (10% DMSO, 10% Solutol HS-15 and 80% saline). It was injected (i.v.) at dose of 3 mg/kg or 5 mg/kg in a 0.5 mL volume. The Sham group and Vehicle group were treated simultaneously with an equal volume of solvent. In the experiment to explore the treatment time window, we merely administered the drug to the rats at different time points, while all other procedures remained unchanged. In the short-term toxicity study, 10 mg/kg Cpd.51 and Oma were administered via tail vein injection at 0.5 mL daily for 7 consecutive days.
All rats were fasted for more than 12 h before the operation began. Transient focal cerebral ischemia was induced by middle cerebral artery occlusion (MCAO) in rat, as previously described, [29]. In short, after anesthetizing the rats with 2.5% tribromoethanol, the right common carotid artery (CCA), external carotid artery (ECA), and internal carotid artery (ICA) were isolated. […] The body temperature of the animals was maintained between 36.5 °C and 37.5 °C.
After the behavioral assessments, rats were euthanized and the brain harvested. Brain tissue was cut into five coronal sections (2 mm thick) and incubated in 2% TTC (298-96-4, TCI, Japan) for 20 min at 37 °C. The volume of ischemic brain injury was measured using ImageJ (US National Institutes of […], Bethesda, MD, USA).
To assess the degree of neurological impairment, we conducted modified Neurological Severity Score (mNSS) according to previous experience. The investigator was blinded to the grouping situation during the whole experiment.
The anesthetized-animals were transcardially perfused with 0.9% saline in vivo. The ischemic penumbral tissue was isolated from rats and grinded in PBS. Similarly, in vitro, the cells were digested with pancreatic enzymes and placed in PBS. Next, repeatedly freeze and thaw three times in liquid nitrogen and 37 °C water. Sample supernatant was taken for testing according to the MDA or GSH assay kit instructions (S0131M or S0053, Beyotime, China).
Brain tissue was fixed with 4% paraformaldehyde and immersed in 15% sucrose and 30% sucrose at 4 °C overnight. Coronal brain sections (thickness = 20 μm) were incubated with blocking solution for 1.5 h at room temperature followed by incubation with primary antibodies: anti-Nrf2 (1:200, CST), anti-DHRS3 (1:300, Proteintech), anti-NeuN (1:500, Servicebio), anti-GFAP (1:500, Abcam) and anti-Iba-1 (1:500, Abcam). Subsequent immunostaining assays were performed as previously described of cells.

[2] = Acute (7-day i.v.) toxicity in rats; assay type: in vivo, rat; conditions: 10 mg/kg i.v. daily for 7 days
Protocol: as §1
Glutamic-pyruvic transaminase (GPT) kits (ml092635, mlbio, China), glutamic oxaloacetic transaminase (GOT) kits (ml092714, mlbio, China), creatinine (CRE) kits (M12C4L, mlbio, China) and blood urea nitrogen (BUN) kits (ml076479, China) were used to detect the serum of rats in order to evaluate liver and kidney functions. Male and female rats were randomly divided into Sham group, Cpd.51 group and Oma group. Doses were administered once daily at 10 mg/kg and body weights were recorded accordingly. Sham groups were given the same volume of solvent. After 7 days, the […] were sacrificed, serum was collected and tested according to the instructions.

primary cortical neurons = assay: OGD/R damage in primary cortical neurons (CCK-8); assay type: cell-based, rat
Protocol: To mimic ischemic conditions in vitro, cells were washed with PBS and then cultured for 2.5 h at 37 °C in glucose-free medium under anaerobic conditions (5% hydrogen, 90% nitrogen, and 5% carbon dioxide). OGD process was terminated by transferring cells back to normal glucose-containing medium under normoxic conditions (5% CO₂, 37 °C) and maintained for 24 h.
In the administration group, cells were exposed for 12 h with Cpd.51 prior to OGD. OGD lasted for 2.5 h and the reperfusion lasted for 24 h before the experiment was concluded. Subsequently, cell viability was determined using the cell counting kit-8 (CCK-8, C0039, Beyotime, China). In the experiment to explore the treatment time window, the only difference was the timing of the Cpd.51 treatment, while all other procedures remained unchanged.
Rat primary neuronal cells collected from the cerebral cortices of embryos (embryonic day 18) from pregnant SD rats were isolated and cultured. In brief, the cerebral cortex tissue of […] was removed and cut into small pieces using ophthalmic curved shears. The tissue was repeatedly pipetted after the addition of preheated 0.25% Trypsin digestive solution (BR00083, ABclonal, China). Finally, twice the volume of the culture medium was added and terminated the digestion to complete the extraction of primary cortical cells. […]

[3] = test system: SH-SY5Y cells and primary cortical neuron cells; assay: Mitochondrial function in the OGD/R model (JC-1, Calcein-AM, DCFH-DA, ATP); assay type: cell-based
Protocol: Experiment two: mitochondrial ATP levels were assayed using ATP assay kit (S0027, Beyotime, China) according to the manufacturer's protocols. The cells were cultured by placing them in six-well plates as described in the "Cell culture and drug administration in vitro" method. Subsequently, 200 uL of lysate was added into the hole and supernatants were collected (4 °C, 12000 g, 5 min). 100 uL supernatants cultured with 100 µL probe of ATP, and the RLU was measured by a luminometer.
Assay of ROS generation production: cellular ROS were examined using an ROS Assay Kit (S0033S, Beyotime, China). Cells were incubated with DCFH-DA for 20 min at 37 °C in the dark, and then washed three times with PBS. The fluorescence intensity was measured by Laser Scanning Confocal Microscope (CLSM; ZEISS LSM 800, Germany).
Mitochondrial membrane potential (MMP) and MPTP assessment: MMP changes were measured by a mitochondrial membrane potential assay kit with JC-1 (C2003S, Beyotime, China) according to the manufacturer's instructions. Higher ratios of red to green fluorescence were correlated with higher mitochondrial membrane polarization. In addition, MPTP opening was assessed by Calcein-AM assays (Y237214-1mg, Beyotime, China). […] For detailed instructions, please refer to the manual.

[4] = 5 mg/kg i.v. at 4 h post-ischemia, read at 24 h

CC1(C)CCC2(C(=O)NO)CCC3(C)C(C(=O)C=C4C5(C)C=C(C#N)C(=O)C(C)(C)C5CCC43C)C2C1 (stereo not drawn) [Cpd.51]
area of infarction (TTC) ([1]; 3 mg/kg and 5 mg/kg i.v. at the same time as ischemia): significantly reduced the area of infarction
infarction volume, delayed administration [1, 4]: significantly diminished infarction volume
mNSS scores, delayed administration [1, 4]: improved mNSS scores
Nrf2, HO-1 and NQO1 protein levels in peri-infarct cortex ([1]; 24 h post tMCAO, immunoblotting): significantly upregulated
cell type of Nrf2 enrichment (co-staining NeuN, GFAP, Iba-1) ([1]; peri-infarct region, 24 h after ischemia): Nrf2 was selectively enriched in neurons
mNSS scores ([1]; tMCAO rats, i.v.): significantly inhibited the increase in mNSS scores
GSH and MDA in cortical tissues ([1]; tMCAO rats, peri-infarct cortex): restoring GSH concentrations and suppressing MDA accumulation
liver hypertrophy, serum GPT and GOT [2]: not observed
serum CRE and BUN [2]: did not induce these changes
weight gain [2]: suppressed weight gain
efficacy in OGD/R-induced primary neuronal damage (primary cortical neurons): excellent efficacy
mitochondrial membrane potential (JC-1) [3]: enhanced mitochondrial membrane potential
mitochondrial permeability (MPTP, Calcein AM) [3]: reduced mitochondrial permeability
ATP production ([3]; SH-SY5Y cells): increased ATP production
reactive oxygen species production (DCFH-DA) ([3]; SH-SY5Y cells): decreased reactive oxygen species production
